Results reported in EP4800013A1, “PARG INHIBITOR” (Shanghai Qilu Pharmaceutical Research and Development …, priority 2023, dated 2025).

biological target: T1, PARG (Homo sapiens, UniProt Q86W56); experiment: Enzymatic inhibitory activity against PARG, HTRF assay; format: biochemical; settings: HTRF; PARylated PARP1 protein as substrate; 60 minutes at room temperature; read-out: IC50 against PARG enzyme
T1 construct: made in house
Experimental: In this experiment, the enzymatic inhibitory activity of the compounds of the present disclosure against PARG was determined using an HTRF (homogeneous time-resolved fluorescence) assay.
HTRF assay reagents were purchased from PerkinElmer (Cat. Nos. 61HISTLB and 610SAXLB). The purified protein was prepared in-house.
PARG enzyme reaction buffer: 50 mM Tris (pH 7.4), 0.1 mg/mL BSA, 3 mM EDTA, 0.4 mM EGTA, 1 mM DTT, 50 mM KCl, and 0.01% Tween 20.
• 1) Using an ultra-micro pipette, the compounds of the present disclosure were serially diluted (starting at 10 µM with 3- to 5-fold serial dilutions) and added to a 384-well reaction plate, with each concentration tested in duplicate wells. Control group 1 was added with 10 µM control compound (100% inhibition group). Control group 2 was added with DMSO (0% inhibition group). After compound addition, the 384-well plate was centrifuged at 1000 rpm for 1 minute. • 2) 2.5 µL of PARG protein was added to each well and incubated with the compounds of the present disclosure at room temperature for 15 minutes, followed by centrifugation at 1000 rpm for 1 minute. • 3) 2.5 µL of PARylated PARP1 protein was added to each well and incubated at room temperature for 60 minutes, followed by centrifugation at 1000 rpm for 1 minute. • 4) 5 µL of His-Tb & SA-XL665 HTRF assay reagents were added to each well and incubated at room temperature for 60 minutes, followed by centrifugation at 1000 rpm for 1 minute. • 5) […] were measured using a PHERAstar FSX microplate reader from BMG. • 6) Data analysis was performed using GraphPad Prism 8. The IC50 values of the compounds of the present disclosure were calculated as follows. […] The average value of duplicate wells in control group 2 (0% inhibition group) was set as the relative inhibition rate of 0%. The HTRF signal values were converted into relative inhibition rates. The IC50 values of the compounds were calculated by fitting the data to a four-parameter logistic model. Table 15: Enzymatic inhibitory activity of the compounds of the present disclosure against PARG

T1 sequence (Q86W56 whole entry): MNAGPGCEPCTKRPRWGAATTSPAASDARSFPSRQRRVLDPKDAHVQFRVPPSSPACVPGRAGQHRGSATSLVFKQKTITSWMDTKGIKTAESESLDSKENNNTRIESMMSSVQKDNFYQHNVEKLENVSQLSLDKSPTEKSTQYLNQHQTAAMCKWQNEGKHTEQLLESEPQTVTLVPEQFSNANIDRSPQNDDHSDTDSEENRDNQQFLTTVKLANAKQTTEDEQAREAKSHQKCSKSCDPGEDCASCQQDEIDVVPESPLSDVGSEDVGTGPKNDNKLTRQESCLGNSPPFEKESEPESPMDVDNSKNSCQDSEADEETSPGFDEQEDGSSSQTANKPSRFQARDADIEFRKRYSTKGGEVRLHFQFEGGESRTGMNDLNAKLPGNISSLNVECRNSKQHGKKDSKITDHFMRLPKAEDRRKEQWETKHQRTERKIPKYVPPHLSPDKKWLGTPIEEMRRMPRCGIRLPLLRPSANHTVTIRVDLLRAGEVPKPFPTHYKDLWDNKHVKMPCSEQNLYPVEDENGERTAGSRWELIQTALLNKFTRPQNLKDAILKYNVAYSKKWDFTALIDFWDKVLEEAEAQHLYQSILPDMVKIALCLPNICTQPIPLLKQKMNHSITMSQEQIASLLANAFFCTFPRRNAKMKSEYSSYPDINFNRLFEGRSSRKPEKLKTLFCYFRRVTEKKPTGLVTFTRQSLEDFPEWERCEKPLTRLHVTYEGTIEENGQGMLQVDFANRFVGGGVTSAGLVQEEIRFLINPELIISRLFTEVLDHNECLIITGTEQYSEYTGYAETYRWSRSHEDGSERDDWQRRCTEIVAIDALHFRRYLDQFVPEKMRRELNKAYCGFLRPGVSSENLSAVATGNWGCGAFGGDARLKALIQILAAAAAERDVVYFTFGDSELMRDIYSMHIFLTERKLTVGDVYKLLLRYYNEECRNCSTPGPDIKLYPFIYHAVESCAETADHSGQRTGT

| Compound | IC50 |
| --- | --- |
| CC(C)c1nc2n(-c3nnc(C(F)F)s3)c3cc(S(=O)(=O)NC4(C)CC4)cc(N4C[C@H](C)N[C@@H](C)C4)c3n2n1 [Compound 065Y] | 0.8 nM |
| C[C@H]1CN(c2cc(S(=O)(=O)NC3(C)CC3)cc3c2n2nc(C4CC4)nc2n3-c2nnc(C(F)F)s2)C[C@H](C)N1 [Compound 065Z] | 1 nM |
| C=CCn1c(=O)n(-c2nnc(C(F)F)s2)c2cc(S(=O)(=O)NC3(C#N)CC3)cc(N3CCN(C(=O)N4CCC4)CC3)c21 [Compound 067B] | 6.9 nM |
| C=CCn1c(=O)n(-c2nnc(C(F)F)s2)c2cc(S(=O)(=O)NC3(C#N)CC3)cc(N3CCN(C(=O)N4CCOCC4)CC3)c21 [Compound 067G] | 8.7 nM |
| C=CCn1c(=O)n(-c2nnc(C(F)F)s2)c2cc(S(=O)(=O)NC3(C#N)CC3)cc(N3CCN(c4nccn4C)CC3)c21 [Compound 067J] | 7.8 nM |
| [2H]C([2H])([2H])OC(C)(C)C(=O)N1CCN(c2cc(S(=O)(=O)NC3(C#N)CC3)cc3c2n(CC=C)c(=O)n3-c2nnc(C(F)F)s2)CC1 [Compound 067LD] | 2.2 nM |
| C=CCn1c(=O)n(-c2nnc(C(F)F)s2)c2cc(S(=O)(=O)NC3(C#N)CC3)cc(N3CCN(C(=O)C(C)(C)OC)CC3)c21 [Compound 067L] | 4.9 nM |
| [2H]C([2H])([2H])OC1(C(=O)N2CCN(c3cc(S(=O)(=O)NC4(C#N)CC4)cc4c3n(CC=C)c(=O)n4-c3nnc(C(F)F)s3)CC2)CC1 [Compound 067ND] | 2.3 nM |
| C=CCn1c(=O)n(-c2nnc(C(F)F)s2)c2cc(S(=O)(=O)NC3(C#N)CC3)cc(N3CCN(C(=O)C4(OC)CC4)CC3)c21 [Compound 067N] | 3.1 nM |
| C=CCn1c(=O)n(-c2nnc(C(F)F)s2)c2cc(S(=O)(=O)NC3(C#N)CC3)cc(N3CCN(C(=O)C(C)(C)N)CC3)c21 [Compound 067P] | 5.2 nM |
| C=CCn1c(=O)n(-c2nnc(C(F)F)s2)c2cc(S(=O)(=O)NC3(C#N)CC3)cc(N3CCN(C(=O)C(C)(C)NC)CC3)c21 [Compound 067Q] | 5 nM |
| C=CCn1c(=O)n(-c2nnc(C(F)F)s2)c2cc(S(=O)(=O)NC3(C#N)CC3)cc(N3CCN(S(=O)(=O)C4CC4)CC3)c21 [Compound 067R] | 3.4 nM |
| C=CCn1c(=O)n(-c2nnc(C(F)F)s2)c2cc(S(=O)(=O)NC3(C#N)CC3)cc(N3CCN(C(=O)C4CC4)CC3)c21 [Compound 067S] | 13.3 nM |
| C=CCn1c(=O)n(-c2nnc(C(F)F)s2)c2cc(S(=O)(=O)NC3(C#N)CC3)cc(N3CCN(C(=O)C(C)(C)C)CC3)c21 [Compound 067T] | 16 nM |
| C=CCn1c(=O)n(-c2nnc(C(F)F)s2)c2cc(S(=O)(=O)NC3(C#N)CC3)cc(N3CCN(C(=O)C4CCC4)CC3)c21 [Compound 067U] | 20 nM |
| C=CCn1c(=O)n(-c2nnc(C(F)F)s2)c2cc(S(=O)(=O)NC3(C#N)CC3)cc(N3CCN(C(=O)C4COC4)CC3)c21 [Compound 067V] | 13.4 nM |

tested on: KURAMOCHI cells; experiment: Inhibition of proliferation of KURAMOCHI cells (CellTiter-Glo, intracellular ATP); format: cell-based; settings: 168 h, incubated for 7 days, read-out: IC50 against KURAMOCHI cells
Experimental: In this experiment, the inhibitory effect of the compounds of the present disclosure on the proliferation of the cancer cell line KURAMOCHI was evaluated by measuring intracellular ATP levels using a bioluminescent assay, and the half maximal inhibitory concentration (IC50) was determined.
RPMI 1640 medium (Cat. No. 11875-093), fetal bovine serum (10099-141), and 100× Pen/Strep (15070-063) were purchased from GIBCO. CellTiter-Glo Luminescent Cell Viability Assay reagent (Cat. No. G7573) was purchased from Promega.
• 1) Day 1: KURAMOCHI cells were counted using a cell counter and seeded into a 96-well culture plate at a density of 4000 cells per well in 100 µL medium. The plate was incubated overnight in an incubator (37°C, 5% CO2). • 2) Day 2: Using a D300e digital dispenser (TECAN), 500 nL of serially diluted test compounds of the present disclosure (starting at 10 µM, a total of 9 concentrations, 1:4 dilution) were added to the cells in the culture plate. The final concentration of DMSO was 0.5%. The cell culture plate was incubated for 7 days in a cell culture incubator (37°C, 5% CO2). Control group 1 received only medium and DMSO (100% inhibition group). Control group 2 received only DMSO (0% inhibition group). The final concentration of DMSO in both groups was 0.5%. • 3) Day 9: 100 µL of CellTiter-Glo reagent was added to each well. The plate was shaken at 500 rpm for 2 minutes, centrifuged at 1000 rpm for 1 minute, and then incubated at room temperature in the dark for 10 minutes to stabilize the luminescence signal. • 4) Luminescence signals were measured using an EnVision microplate reader (PerkinElmer). • 5) Data analysis was performed using GraphPad Prism 8. The IC50 values of the compounds of the present disclosure were calculated as follows. The CTG signal values were analyzed. The average inhibition rate of control group 1 (100% inhibition group) was set as the relative inhibition rate of 100%. The average inhibition rate of control group 2 (0% inhibition group) was set as the relative inhibition rate of 0%. The CTG signal values were converted into relative inhibition rates. The inhibition percentage (inhibition%) for each concentration of the compounds of the present disclosure was calculated according to the following formula: Inhibition% = (b−x)/(b−a)*100%; [formula] • a = CTG value (highest concentration), b = CTG value (blank well), x = CTG value (test well). • IC50 was calculated using GraphPad Prism 8. • (1) The concentration and inhibition rate corresponding to each well were recorded. Statistical calculation was performed using Log10 (compound concentration). • (2) The data were input into GraphPad Prism 8 and Analysis was selected. • (3) Nonlinear regression (curve fit) was selected. • (4) Log (inhibitor) vs. response - Variable slope was selected. • (5) The calculation formula was selected, and the calculation was performed according to the following formula: Y = Bottom + (Top - Bottom) / (1 + 10 ^ ((LogIC50 - X) * HillSlope)); X: log of dose or concentration; Y: response; Top and Bottom: maximum and minimum response. • (6) The IC50 values were calculated by fitting the data. Table 16: Inhibitory effect of the compounds of the present disclosure on the proliferation of KURAMOCHI cells

| Compound | IC50 |
| --- | --- |
| CC(C)c1nc2n(-c3nnc(C(F)F)s3)c3cc(S(=O)(=O)NC4(C)CC4)cc(N4C[C@H](C)N[C@@H](C)C4)c3n2n1 [Compound 065Y] | 6 nM |
| C[C@H]1CN(c2cc(S(=O)(=O)NC3(C)CC3)cc3c2n2nc(C4CC4)nc2n3-c2nnc(C(F)F)s2)C[C@H](C)N1 [Compound 065Z] | 4 nM |
| C=CCn1c(=O)n(-c2nnc(C(F)F)s2)c2cc(S(=O)(=O)NC3(C#N)CC3)cc(N3CCN(C(=O)N4CCC4)CC3)c21 [Compound 067B] | 15 nM |
| C=CCn1c(=O)n(-c2nnc(C(F)F)s2)c2cc(S(=O)(=O)NC3(C#N)CC3)cc(N3CCN(C(=O)N4CCOCC4)CC3)c21 [Compound 067G] | 26 nM |
| C=CCn1c(=O)n(-c2nnc(C(F)F)s2)c2cc(S(=O)(=O)NC3(C#N)CC3)cc(N3CCN(c4nccn4C)CC3)c21 [Compound 067J] | 21 nM |
| [2H]C([2H])([2H])OC(C)(C)C(=O)N1CCN(c2cc(S(=O)(=O)NC3(C#N)CC3)cc3c2n(CC=C)c(=O)n3-c2nnc(C(F)F)s2)CC1 [Compound 067LD] | 5 nM |
| C=CCn1c(=O)n(-c2nnc(C(F)F)s2)c2cc(S(=O)(=O)NC3(C#N)CC3)cc(N3CCN(C(=O)C(C)(C)OC)CC3)c21 [Compound 067L] | 4 nM |
| [2H]C([2H])([2H])OC1(C(=O)N2CCN(c3cc(S(=O)(=O)NC4(C#N)CC4)cc4c3n(CC=C)c(=O)n4-c3nnc(C(F)F)s3)CC2)CC1 [Compound 067ND] | 3 nM |
| C=CCn1c(=O)n(-c2nnc(C(F)F)s2)c2cc(S(=O)(=O)NC3(C#N)CC3)cc(N3CCN(C(=O)C4(OC)CC4)CC3)c21 [Compound 067N] | 3 nM |
| C=CCn1c(=O)n(-c2nnc(C(F)F)s2)c2cc(S(=O)(=O)NC3(C#N)CC3)cc(N3CCN(C(=O)C(C)(C)N)CC3)c21 [Compound 067P] | 74 nM |
| C=CCn1c(=O)n(-c2nnc(C(F)F)s2)c2cc(S(=O)(=O)NC3(C#N)CC3)cc(N3CCN(C(=O)C(C)(C)NC)CC3)c21 [Compound 067Q] | 13 nM |
| C=CCn1c(=O)n(-c2nnc(C(F)F)s2)c2cc(S(=O)(=O)NC3(C#N)CC3)cc(N3CCN(S(=O)(=O)C4CC4)CC3)c21 [Compound 067R] | 6 nM |
| C=CCn1c(=O)n(-c2nnc(C(F)F)s2)c2cc(S(=O)(=O)NC3(C#N)CC3)cc(N3CCN(C(=O)C4CC4)CC3)c21 [Compound 067S] | 14 nM |
| C=CCn1c(=O)n(-c2nnc(C(F)F)s2)c2cc(S(=O)(=O)NC3(C#N)CC3)cc(N3CCN(C(=O)C(C)(C)C)CC3)c21 [Compound 067T] | 11 nM |
| C=CCn1c(=O)n(-c2nnc(C(F)F)s2)c2cc(S(=O)(=O)NC3(C#N)CC3)cc(N3CCN(C(=O)C4CCC4)CC3)c21 [Compound 067U] | 21 nM |
| C=CCn1c(=O)n(-c2nnc(C(F)F)s2)c2cc(S(=O)(=O)NC3(C#N)CC3)cc(N3CCN(C(=O)C4COC4)CC3)c21 [Compound 067V] | 83 nM |
